# According to US8691947B2, “Materials related to sodium/potassium adenosine triphosphatase and Src” (The University of Toledo, priority 2010, dated 2014):
# Entries after “also recorded” stand apart in the source; their conditions may differ.
# Columns and labels:
# [1] = target: T1, Na/K-ATPase-associated Src (Sus scrofa, UniProt P05024); type: biochemical, pig; details: for Effect on activity of Na/K-ATPase-associated Src, Na/K-ATPase stabilized in E1P: NEM and AMP-PNP used together; for Effect on activity of Na/K-ATPase-associated Src: purified pig kidney Na/K-ATPase treated with modifier or ouabain, incubated with purified Src
# T1 construct: The Na/K-ATPase was purified from pig kidney and the purified Src was purchased from Upstate; tissue Upstate (for the Src chain); host or cells: pig kidney
# Protocol: The Na/K-ATPase was purified from pig kidney and the purified Src was purchased from Upstate. To stabilize the Na/K-ATPase in the E2P conformation, the purified Na/K-ATPase was treated by two different fluoride compounds (BeF and AIF) as described, washed and then incubated with Src. The ouabain-treated and control Na/K-ATPase/Src complex was used as positive and negative controls for the experiments, respectively. Similarly, the Na/K-ATPase was stabilized at the E1P state by NEM/AMPPNP as described and then analyzed.
# The purified Na/K-ATPase was subjected to chymotrypsin or trypsin digestion as described. The digested enzyme was washed and assayed for Na/K-ATPase activity. The enzyme preparations with less than 25% activity was incubated with Src in 150 mM Na^+ medium in the presence or absence of 10 μM ouabain. The non-digested enzyme was used as control. […] Quantitative data was presented as mean±S.E. of at least 3 separate experiments. *, p<0.05; **, p<0.01.
# The inventors utilized different chemical modifiers to stabilize the Na/K-ATPase in distinct conformational states and then assessed the conformation-dependent effect of Na/K-ATPase on Src. Fluoride compounds such as aluminum fluoride and beryllium fluoride, can interact with Na/K-ATPase as phosphate analogues, and stabilize the enzyme as well as other P-type ATPase in the E2P conformation.
# LLC-PK1 cells = assay: Western blot of Src and ERKs in LLC-PK1 cell lysates; type: cell-based
# Protocol: FIG. 3E, FIG. 3F, and FIG. 3G: Cells were exposed to media containing different concentrations of K^+ or Na^+, and then lysed. Cell lysates were subjected to Western blot analyses of Src and ERKs as indicated. Quantitative data was presented as mean±S.E. of at three independent experiments. *, p<0.05; **, p<0.01.
# To verify these findings, the inventors also conducted Western blot analyses of cell lysates after the cells were incubated in normal or low K^+ medium.
# Src SH2 domain = Src SH2 domain (Homo sapiens, UniProt P12931); assay: GST pull-down of GST-CD2 binding to Src in the absence and presence of peptides; details: peptide incubated with GST-CD2 and Src for 15 min, Western blot with anti-Src antibody
# Protocol: CD2C2 was added to a mixture of Src and GST-CD2 at indicated concentrations. Src in the pull-down products was analyzed by Western blot with anti-Src antibody.
# To support this notion, the inventors checked whether the peptides derived from C-terminus of CD2 can attenuate the binding between CD2 and Src. Purified GST-CD2 was incubated with Src in the absence and presence of peptides for 15 min. Then pull-down pellets were analyzed by Western blot with antibody against Src. […] If CD2C2 peptide disrupts the SH2/CD2 interaction, the inventors expect that CD2C2 may abolish CTS-induced Src activation. To test that, the inventors preincubated Src with indicated amount of CD2 peptides for 15 min in PBS. Then purified pig kidney Na/K-ATPase was added for another 15 min. 1 μM ouabain was added to mixture for 5 min. Then Src autophosphorylation was detected in the presence of 2 mM ATP/Mg^2+. […] Therefore, to search for new antagonists, the inventors will perform the following four sets of experiments.
# Na/K-ATPase/Src complex = target: T2, Na/K-ATPase/Src complex (Homo sapiens, UniProt P12931); assay: Ouabain-induced Src activation (Tyr418 autophosphorylation, Western blot) in a mixture of purified Na/K-ATPase and Src; type: biochemical; details: Src preincubated with peptide 15 min, pig kidney Na/K-ATPase 15 min, 1 μM ouabain 5 min, 2 mM ATP/Mg2+
# T2 construct: purchased
# Protocol: FIG. 4. […] CD2C2 peptide was incubated with purified Src (the amount was indicated as molar ratio of Src/Cd2C2) for 15 minutes in PBS solution. Then purified Na/K-ATPase from pig kidney was added for another 15 minutes. After that, ouabain was added to the reaction system for 5 minutes, followed by addition of 2 mM Mg2+/ATP. The Src activity was determined by Western blot probing with anti-phosphorylated Tyr418. A representative Western blot was shown, and quantitative data was presented as mean±S.E. of at 3 separate experiments. **, p<0.01.
# FIG. 7B, antagonizing ouabain-induced Src activation by CD2C2. Src was preincubated with indicated amount of CD2C2 peptide for 15 min in PBS. […] Then Src autophosphorylation was detected in the presence of 2 mM ATP/Mg^2+. […]
# To support this notion, the inventors checked whether the peptides derived from C-terminus of CD2 can attenuate the binding between CD2 and Src. […] Then pull-down pellets were analyzed by Western blot with antibody against Src. […] Then Src autophosphorylation was detected in the presence of 2 mM ATP/Mg^2+. […]
# The inventors incubated the test chemicals with commercially available purified Src for 15 minutes in PBS solution. […] The Src activity was determined by Western blot probing with anti-phosphorylated Tyr418. […] Both peptides were incubated in a 96 well plate, and the FRET energy transfer was measured using a spectra meter. […]
Molecule,"Effect on activity of Na/K-ATPase-associated Src, Na/K-ATPase stabilized in E1P [1]",Effect on activity of Na/K-ATPase-associated Src [1],further results
"Nc1ncnc2c1ncn2[C@@H]1O[C@H](COP(=O)(O)OP(=O)(O)NP(=O)(O)O)[C@@H](O)[C@H]1O [AMP-PNP, adenyl-5′-yl imidodiphosphate]",completely inhibited,–,–
"CCN1C(=O)C=CC1=O [NEM, N-ethylmaleimide]",completely inhibited,–,–
[Be+2].[F-].[F-] [beryllium fluoride],–,sufficient to stimulate the Na/K-ATPase-associated Src,–
C[C@@H]1O[C@@H](O[C@H]2C[C@@H](O)[C@]3(CO)[C@H]4[C@H](O)C[C@]5(C)[C@@H](C6=CC(=O)OC6)CC[C@]5(O)[C@@H]4CC[C@]3(O)C2)[C@H](O)[C@H](O)[C@H]1O [ouabain],–,able to stimulate the Na/K-ATPase-associated Src,Effect on cellular Src activity and ERKs (LLC-PK1 cells): stimulated cellular Src activity
"STNCV EGTAR GIVVY TGD (STNCVEGTARGIVVYTGD; listed as Sus scrofa) [CD2C2, peptide derived from C-terminus of CD2 of Na/K-ATPase α1 subunit; ouabain antagonist]",–,–,Competition with binding of GST-CD2 to Src (Src in pull-down products) (Src SH2 domain): attenuates the binding of CD2 to Src; also recorded: able to compete with and block the binding of GST-CD2 to Src SH2 domain; Competition with binding of GST-CD2 to Src (Src in pull-down products) (Src SH2 domain; listed as SEQ ID NO:1): disrupts the interaction of the ATPase CD2/Src SH2 domain; Antagonism of ouabain-induced Src activation (Na/K-ATPase/Src complex): potent ouabain antagonist; also recorded: abolished ouabain-induced Src activation in a dose-dependent manner; Antagonism of ouabain-induced Src activation (Na/K-ATPase/Src complex; listed as SEQ ID NO:1): abolishes ouabain-induced Src stimulation
aluminum fluoride,–,sufficient to stimulate the Na/K-ATPase-associated Src,–
